# Source: article PMC5349141, “Polyamines directly promote antizyme-mediated degradation of ornithine decarboxylase by the proteasome” (Microbial Cell, 2015)
# Where a chain is given by its changes, count along the chain named.
# Columns and labels:
# [1] = target: T1, 6His-Oaz1 (antizyme, OAZ) (Saccharomyces cerevisiae, UniProt Q02803); assay: competition with [3H]-spermidine; type: binding; conditions: 10 µM [3H]-spermidine; competitive
# T1 construct: full-length, in-frame OAZ1 (no ribosomal frameshift needed), 6His tag, from E. coli Rosetta (plasmid pDG240)
# T1 sequence (Q02803 1-292): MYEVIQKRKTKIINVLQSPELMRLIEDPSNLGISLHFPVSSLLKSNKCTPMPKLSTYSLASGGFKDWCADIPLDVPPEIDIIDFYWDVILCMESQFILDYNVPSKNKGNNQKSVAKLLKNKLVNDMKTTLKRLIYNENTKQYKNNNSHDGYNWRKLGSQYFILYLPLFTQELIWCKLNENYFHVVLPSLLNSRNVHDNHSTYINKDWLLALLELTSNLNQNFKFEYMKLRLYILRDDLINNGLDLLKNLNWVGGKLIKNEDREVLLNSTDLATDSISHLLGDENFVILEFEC
# [2] = target: T2, 6His-Oaz1 (antizyme, OAZ) (Saccharomyces cerevisiae, UniProt Q02803, L245A/L246A/K247A/W251A); assay: [3H]-spermidine retention by 6His-tagged protein; type: binding; conditions: labelled compound
# T2 construct: full-length, in-frame OAZ1 (no ribosomal frameshift needed), 6His tag, from E. coli Rosetta (plasmid pDG240)
# T2 sequence (Q02803 1-292 L245A/L246A/K247A/W251A): T1 sequence (Q02803 1-292) with L245A, L246A, K247A, W251A
# [3] = target: T1, 6His-Oaz1 (antizyme, OAZ); assay: [3H]-spermidine retention by 6His-tagged protein; type: binding; conditions: labelled compound
# 26S proteasome = target: T3, 26S proteasome (Saccharomyces cerevisiae, UniProt P23724+P30656); assay: Suc-LLVY-AMC hydrolysis; type: biochemical; conditions: 1 mM ATP; 1 mM DTT; 5 mM MgCl2; pH 7.8; weak effect, site unknown
# T3 construct: gene PRE2; anti-Flag beads; singly and doubly capped, some free 20S; with Proteasome subunit beta type-4; Proteasome subunit beta type-1; Proteasome subunit beta type-2; Proteasome subunit beta type-3; Proteasome subunit beta type-7; Proteasome subunit alpha type-1; Proteasome subunit alpha type-2; Proteasome subunit alpha type-3; Proteasome subunit alpha type-4; Proteasome subunit alpha type-5; Proteasome subunit alpha type-6; Proteasome subunit alpha type-7
smiles,measurement,setting,value
CC(=O)NCCCNCCCCN [N1-acetylspermidine],competition with [3H]-spermidine,[1],"mono-acetylspermidine derivatives: ""mono-acetylated spermidine derivatives showed a clearly reduced binding to antizyme"""
CC(=O)NCCCCNCCCN [N8-acetylspermidine],competition with [3H]-spermidine,[1],mono-acetylated spermidine derivatives showed a clearly reduced binding to antizyme
"NCCCCNCCCN [spd, spermidine]",[3H]-spermidine retention by 6His-tagged protein,[2],Oaz1-4res bound [^3H]-spermidine with a similar efficiency as its wild-type counterpart
same,[3H]-spermidine retention by 6His-tagged protein,[3],retention of [^3H]-spermidine by 6His-Oaz1 or 6His-Oaz1-4res
"NCCCNCCCCNCCCN [spm, spermine]",activity versus spermine concentration,26S proteasome,A small reduction in proteasome activity was observed with polyamine addition
